# Measurements: patent US20130053381A1, “2,4-DIOXO-1,4-DIHYDRO-2H-QUINAZOLIN-3-YL-SULFONAMIDE DERIVATIVES” (NOVARTIS AG, priority 2010, published 2013)
# Test system: OF1 mice
# Assay: Maximal electroshock test (MES Test)
# Type: in vivo
# Details: Mus musculus, po; 50 mg/kg, p.o., pre-treatment time −0.5 h (footnote d); read-out: %-Protection
# Experimental: Compounds of the invention were tested in OF1 mice using the maximal electroshock test (MES Test) described in detail by Schmutz et al., Naunyn-Schmiedeberg's Arch Pharmacol 1990, 342, 61-66. Briefly, generalized tonic-clonic convulsions of the hind extremities were induced by passing electrical current through temporal electrodes (50 Hz, 18 mA, 0.2s). […] 30 mg/kg carbamazepine was used as a positive control; mice were classified as protected by a compound If the duration of the seizure lasted only 3 second or less. Five mice were used for each treatment condition and the percentage of protected mice was used as readout (i.e. a compound could give 0%, 20%, 40%, 60%, 80% or 100% protection). Usually, compounds of the invention or their parents were given at a dose of 50 mg/kg, p.o., 1 hour prior to induction of convulsions (i.e. “pre-treatment time −1 h”).
# ED50 values (ED: effective dose) were calculated using GraphPad Prism, v4.02. after shock administration, mouse blood was collected for determination of compounds' blood exposure.
row,SMILES,responders at 50 mg/kg [%]
1,CCCC(=O)N(n1c(=O)[nH]c2cc(C(F)(F)F)c([C@H]3CCCO3)cc2c1=O)S(C)(=O)=O [Example 10.03],60
2,"CC(=O)N(n1c(=O)[nH]c2cc(C(F)(F)F)c([C@H]3CCCO3)cc2c1=O)S(C)(=O)=O [Example 10.01, N-Acetyl-N—((R)-2,4-dioxo-6-tetrahydro-furan-2-yl-7-trifluoromethyl-1,4-dihydro-2H-quinazolin-3-yl)-methanesulfonamide]",40

# Same assay, conditions: Mus musculus, po; 50 mg/kg, p.o., pre-treatment time −1 h; read-out: %-Protection
row,SMILES,responders at 50 mg/kg [%]
1,CCCC(=O)N(n1c(=O)[nH]c2cc(C(F)(F)F)c([C@H]3CCCO3)cc2c1=O)S(C)(=O)=O [Example 10.03],100
2,"CCC(=O)N(n1c(=O)[nH]c2cc(C(F)F)c(-c3ccnn3C(C)C)cc2c1=O)S(C)(=O)=O [Example 6.05, N-[7-Difluoromethyl-6-(2-isopropyl-2H-pyrazol-3-yl)-2,4-dioxo-1,4-dihydro-2H-quinazolin-3-yl]-N-propionyl-methanesulfonamide]",80
3,"CCC(=O)N(n1c(=O)[nH]c2cc(CC)c(-c3ccnn3C)cc2c1=O)S(C)(=O)=O [Example 2.10, N-[7-Ethyl-6-(2-methyl-2H-pyrazol-3-yl)-2,4-dioxo-1,4-dihydro-2H-quinazolin-3-yl]-N-propionyl-methanesulfonamide]",100
4,"CCOC(=O)CC(=O)N(n1c(=O)[nH]c2cc(C(F)(F)F)c(-c3ccnn3C(C)C)cc2c1=O)S(C)(=O)=O [Example 5.12, 3-{[6-(2-Isopropyl-2H-pyrazol-3-yl)-2,4-dioxo-7-trifluoromethyl-1,4-dihydro-2H-quinazolin-3-yl]-methanesulfonyl-amino}-3-oxo-propionic acid ethyl ester]",40
5,"CC(C)c1cc2[nH]c(=O)n(N(C(=O)CCN3CCOCC3)S(C)(=O)=O)c(=O)c2cc1-c1ccnn1C [Example 3.38, N-[7-Isopropyl-6-(2-methyl-2H-pyrazol-3-yl)-2,4-dioxo-1,4-dihydro-2H-quinazolin-3-yl]-N-(3-morpholin-4-yl-propionyl)-methanesulfonamide]",80
6,"CC(=O)N(n1c(=O)[nH]c2cc(C(F)(F)F)c([C@H]3CCCO3)cc2c1=O)S(C)(=O)=O [Example 10.01, N-Acetyl-N—((R)-2,4-dioxo-6-tetrahydro-furan-2-yl-7-trifluoromethyl-1,4-dihydro-2H-quinazolin-3-yl)-methanesulfonamide]",80
7,CCOC(=O)CCC(=O)N(n1c(=O)[nH]c2cc(C(F)(F)F)c([C@H]3CCCO3)cc2c1=O)S(C)(=O)=O [Example 10.10],20
8,"CCOC(=O)N(n1c(=O)[nH]c2cc(C(F)(F)F)c([C@H]3CCCO3)cc2c1=O)S(C)(=O)=O [Example 10.05, Methanesulfonyl-N—((R)-2,4-dioxo-6-tetrahydro-furan-2-yl-7-trifluoromethyl-1,4-dihydro-2H-quinazolin-3-yl)-carbamic acid ethyl ester]",40
9,"CCC(=O)N(n1c(=O)[nH]c2cc(C(F)(F)F)c(-c3ccnn3CC)cc2c1=O)S(C)(=O)=O [Example 15.02, N-[6-(2-Ethyl-2H-pyrazol-3-yl)-2,4-dioxo-7-trifluoromethyl-1,4-dihydro-2H-quinazolin-3-yl]-N-propionyl-methanesulfonamide]",20
10,"CCC(=O)N(n1c(=O)c2cc(-c3ccnn3C)c(C(C)C)cc2n(C(=O)CC)c1=O)S(C)(=O)=O [Example 3.25, N-[7-Isopropyl-6-(2-methyl-2H-pyrazol-3-yl)-2,4-dioxo-1-propionyl-1,4-dihydro-2H-quinazolin-3-yl]-N-propionyl-methanesulfonamide]",100
11,"CCOC(=O)N(n1c(=O)[nH]c2cc(C(F)(F)F)c(-c3ccnn3C(C)C)cc2c1=O)S(C)(=O)=O [Example 5.06, [6-(2-Isopropyl-2H-pyrazol-3-yl)-2,4-dioxo-7-trifluoromethyl-1,4-dihydro-2H-quinazolin-3-yl]-methanesulfonyl-carbamic acid ethyl ester]",60
12,"CCC(O)c1cc2c(=O)n(N(C(=O)OCCOC)S(C)(=O)=O)c(=O)[nH]c2cc1C(F)(F)F (stereo not drawn) [Example 12.02, Methanesulfonyl-[6-(1-hydroxy-propyl)-2,4-dioxo-7-trifluoromethyl-1,4-dihydro-2H-quinazolin-3-yl]-carbamic acid 2-methoxy-ethyl ester]",20
13,"CCCOC(=O)N(n1c(=O)[nH]c2cc(CC)c(-c3ccnn3C)cc2c1=O)S(C)(=O)=O [Example 2.06, Methanesulfonyl-[7-ethyl-6-(2-methyl-2H-pyrazol-3-yl)-2,4-dioxo-1,4-dihydro-2H-quinazolin-3-yl]-carbamic acid propyl ester]",60
14,"CCCCC(=O)N(n1c(=O)[nH]c2cc(C(F)(F)F)c(-c3ccnn3C)cc2c1=O)S(C)(=O)=O [Example 1.01, N-[6-(2-Methyl-2H-pyrazol-3-yl)-2,4-dioxo-7-trifluoromethyl-1,4-dihydro-2H-guinazolin-3-yl]-N-pentanoyl-methanesulfonamide]",40
15,"CC(=O)OCC(=O)N(n1c(=O)[nH]c2cc(C(C)C)c(-c3ccnn3C)cc2c1=O)S(C)(=O)=O [Example 3.17, Acetic acid 2-{[7-isopropyl-6-(2-methyl-2H-pyrazol-3-yl)-2,4-dioxo-1,4-dihydro-2H-quinazolin-3-yl]-methanesulfonyl-amino}-2-oxo-ethyl ester]",100
16,"CCCOC(=O)N(n1c(=O)[nH]c2cc(C(F)(F)F)c(-n3ccnc3C)cc2c1=O)S(C)(=O)=O [Example 7.03, Methanesulfonyl-[6-(2-methyl-imidazol-1-yl)-2,4-dioxo-7-trifluoromethyl-1,4-dihydro-2H-quinazolin-3-yl]-carbamic acid propyl ester]",40
17,"CCOC(=O)CCC(=O)N(n1c(=O)[nH]c2cc(C(F)(F)F)c(-n3ccnc3)cc2c1=O)S(C)(=O)=O [Example 4.01, 4-[(6-Imidazol-1-yl-2,4-dioxo-7-trifluoromethyl-1,4-dihydro-2H-quinazolin-3-yl)-methanesulfonyl-amino]-4-oxo-butyric acid ethyl ester]",20
18,"CCC(OC)c1cc2c(=O)n(N(C(=O)C(C)C)S(C)(=O)=O)c(=O)[nH]c2cc1C(F)(F)F (stereo not drawn) [Example 11.06, N-Isobutyryl-N-[6-(1-methoxy-propyl)-2,4-dioxo-7-trifluoromethyl-1,4-dihydro-2H-quinazolin-3-yl]-methanesulfonamide]",100
19,"COC(=O)N(n1c(=O)[nH]c2cc(C(F)(F)F)c([C@H]3CCCO3)cc2c1=O)S(C)(=O)=O [Example 10.04, Methanesulfonyl-N—((R)-2,4-dioxo-6-tetrahydro-furan-2-yl-7-trifluoromethyl-1,4-dihydro-2H-quinazolin-3-yl)-carbamic acid methyl ester]",20
20,"CC(=O)N(n1c(=O)[nH]c2cc(C(F)(F)F)c(-n3ccnc3)cc2c1=O)S(C)(=O)=O [Example 4.03, N-Acetyl-N-(6-imidazol-1-yl-2,4-dioxo-7-trifluoromethyl-1,4-dihydro-2H-quinazolin-3-yl)-methanesulfonamide]",40

# Same assay, conditions: Mus musculus, po; Dose: 15 mg/kg, p.o. (footnote c), pre-treatment time −1 h; read-out: %-Protection
row,SMILES,responders at 15 mg/kg [%]
1,"CCOC(=O)CC(=O)N(n1c(=O)[nH]c2cc(C(C)C)c(-c3ccnn3C)cc2c1=O)S(C)(=O)=O [Example 3.07, 3-{[7-Isopropyl-6-(2-methyl-2H-pyrazol-3-yl)-2,4-dioxo-1,4-dihydro-2H-quinazolin-3-yl]-methanesulfonyl-amino}-3-oxo-propionic acid ethyl ester]",80
2,"COCCOC(=O)N(n1c(=O)[nH]c2cc(C(C)C)c(-c3ccnn3C)cc2c1=O)S(C)(=O)=O [Example 3.02, [7-Isopropyl-6-(2-methyl-2H-pyrazol-3-yl)-2,4-dioxo-1,4-dihydro-2H-quinazolin-3-yl]-methanesulfonyl-carbamic acid 2-methoxy-ethyl ester]",100
3,"CC(C)COC(=O)N(n1c(=O)[nH]c2cc(C(C)C)c(-c3ccnn3C)cc2c1=O)S(C)(=O)=O [Example 3.03, [7-Isopropyl-6-(2-methyl-2H-pyrazol-3-yl)-2,4-dioxo-1,4-dihydro-2H-quinazolin-3-yl]-methanesulfonyl-carbamic acid isobutyl ester]",40

# Same assay, conditions: Mus musculus, po; Dose: 25 mg/kg, p.o. (footnote b), pre-treatment time −1 h; read-out: %-Protection
row,SMILES,responders at 25 mg/kg [%]
1,"CCC(=O)N(n1c(=O)[nH]c2cc(C(F)F)c(-c3ccnn3C(C)C)cc2c1=O)S(C)(=O)=O [Example 6.05, N-[7-Difluoromethyl-6-(2-isopropyl-2H-pyrazol-3-yl)-2,4-dioxo-1,4-dihydro-2H-quinazolin-3-yl]-N-propionyl-methanesulfonamide]",60

# Same assay, conditions: Mus musculus; dose of up to 50 mg/kg, p.o., 1 hour prior to induction of convulsions; read-out: %-Protection
row,SMILES,responders at 50 mg/kg [%]
1,"CCCCOC(=O)N(n1c(=O)[nH]c2cc(C(F)F)c(-c3ccnn3CC)cc2c1=O)S(C)(=O)=O [[7-Difluoromethyl-6-(2-ethyl-2H-pyrazol-3-yl)-2,4-dioxo-1,4-dihydro-2H-quinazolin-3-yl]-methanesulfonyl-carbamic acid butyl ester]",0
2,"CCn1nccc1-c1cc2c(=O)n(N(C(C)=O)S(C)(=O)=O)c(=O)[nH]c2cc1C(F)(F)F [N-Acetyl-N-[6-(2-ethyl-2H-pyrazol-3-yl)-2,4-dioxo-7-trifluoromethyl-1,4-dihydro-2H-quinazolin-3-yl]-methanesulfonamide]",0
3,"CCCCCCOC(=O)N(n1c(=O)[nH]c2cc(C(F)(F)F)c([C@H]3CCCO3)cc2c1=O)S(C)(=O)=O [Methanesulfonyl-[(R)-2,4-Dioxo-6-tetrahydro-furan-2-yl-7-trifluoromethyl-1,4-dihydro-2H-quinazolin-3-yl]carbamic acid hexyl ester]",0
4,"CCc1cc2[nH]c(=O)n(N(C(=O)C(C)C)S(C)(=O)=O)c(=O)c2cc1-c1ccnn1CC [N-[7-Ethyl-6-(2-ethyl-2H-pyrazol-3-yl)-2,4-dioxo-1,4-dihydro-2H-quinazolin-3-yl]-N-isobutyryl-methanesulfonamide]",0
